Source: patent publication US7972815B2, “Method of producing sugar chain using human G4 polypeptide” (Kyowa Hakko Kirin Co., Ltd., priority 1999, dated 2011)
Like-named read-outs stand apart in the source and are kept apart here.

Key:
[1] = biological target: T1, β1,3-N-acetylglucosaminyl transferase (G3) (Homo sapiens, UniProt Q9NY97); assay: Substrate specificity of G3 with pyridylaminated oligosaccharides; format: biochemical; conditions: pyridylaminated substrate, 37° C., 2 hours, activity on LNnT defined as 100%
T1 construct: made in house; host or cells: Sf21 insect cells infected with recombinant baculovirus from pVL1393-F2G3
T1 sequence (Q9NY97 31-397): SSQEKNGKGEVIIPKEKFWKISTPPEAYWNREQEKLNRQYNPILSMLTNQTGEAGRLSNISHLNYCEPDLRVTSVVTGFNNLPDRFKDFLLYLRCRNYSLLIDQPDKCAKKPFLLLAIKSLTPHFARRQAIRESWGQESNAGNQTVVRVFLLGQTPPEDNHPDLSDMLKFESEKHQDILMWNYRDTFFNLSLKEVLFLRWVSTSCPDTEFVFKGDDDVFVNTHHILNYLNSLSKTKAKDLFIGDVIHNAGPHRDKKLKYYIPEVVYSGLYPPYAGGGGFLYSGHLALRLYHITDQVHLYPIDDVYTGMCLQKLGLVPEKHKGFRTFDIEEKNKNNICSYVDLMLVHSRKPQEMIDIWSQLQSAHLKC
Description: (§1) The method shown in Example 8 was used as the activity measuring method. Specifically, after the reaction at 37° C. for 14.5 hours in 30 μl of an assay solution [200 mmol/l of MOPS (pH 7.5), 20 mmol/l of UDP-GlcNAc (SIGMA), 20 mmol/l of MnCl2, 50 μmol/l of pyridylaminated sugar chain substrate and 15 μl of the above eluate], products were detected by HPLC. As substrates, LNnT, lacto-N-tetraose (Galβ1-3GlcNAcβ1-3Galβ1-4Glc, hereinafter referred to as “LNT”), lacto-N-fucopentaose II (Galβ1-3(Fucα1-4)GlcNAcβ1-3Galβ1-4Glc, hereinafter referred to as “LNFP-II”), lacto-N-fucopentaose III (Galβ1-4(Fucα1-3)GlcNAcβ1-3Galβ1-4Glc, hereinafter referred to as “LNFP-III”), lacto-N-fucopentaose V (Galβ1-3GlcNAcβ1-3Galβ1-4(Fucα1-3)Glc, hereinafter referred to as “LNFP-V”) and lacto-N-difucohexaose II (Galβ1-3(Fucα1-4)GlcNAcβ1-3Galβ1-4(Fucα1-3)Glc, hereinafter referred to as “LNDFH-II”) (all manufactured by Oxford Glycosystems) were used after fluorescently labeling them with aminopyridine. Fluorescence labeling of these substrates were carried out in accordance with the usual method [Agric. Biol. Chem., 54, 2169 (1990)].
(§2) For each substrate, the reaction was carried using the assay solution with or without UDP-GlcNAc (sugar donor), and then HPLC was carried out and peaks appeared only in the assay solution containing UDP-GlcNAc were defined as products.
(§3) The assay solution after completion of the reaction was treated at 100° C. for 5 minutes and then centrifuged at 10,000×g for 5 minutes, and a portion (5 μl) of the thus obtained supernatant was applied to HPLC.
(§4) The HPLC was carried out by using TSK-gel ODS-80Ts column (4.6×300 mm; Tosoh); 0.02 mol/l ammonium acetate buffer (pH 4.0) was used as the eluate at an elution temperature of 50° C. and at a flow rate of 0.5 ml/min.
(§5) Products were detected by using a fluorescence spectrum photometer FP-920 (JASCO Corporation) (excitation wavelength 320 nm, radiation wavelength 400 nm).
Substrate specificity of a β1,3-N-acetylglucosaminyl transferase (G3) was examined using the FLAG peptide-fused G3 polypeptide purified in Example 14.
Substrate specificity of the FLAG peptide-fused G3 polypeptide was examined by the method shown in Example 11(1). The reaction was carried out at 37° C. for 2 hours.

[2] = biological target: T2, β1,3-N-acetylglucosaminyl transferase (G4) (Homo sapiens, UniProt Q9Y2A9, R328H); assay: Substrate specificity of G4 with pyridylaminated oligosaccharides; format: biochemical; conditions: pyridylaminated substrate 50 μmol/l, 37° C., 14.5 hours, activity on LNnT defined as 100%
T2 construct: made in house; host or cells: Sf21 insect cells infected with recombinant baculovirus from pVL1393-F2G4
T2 sequence (Q9Y2A9 38-372 R328H): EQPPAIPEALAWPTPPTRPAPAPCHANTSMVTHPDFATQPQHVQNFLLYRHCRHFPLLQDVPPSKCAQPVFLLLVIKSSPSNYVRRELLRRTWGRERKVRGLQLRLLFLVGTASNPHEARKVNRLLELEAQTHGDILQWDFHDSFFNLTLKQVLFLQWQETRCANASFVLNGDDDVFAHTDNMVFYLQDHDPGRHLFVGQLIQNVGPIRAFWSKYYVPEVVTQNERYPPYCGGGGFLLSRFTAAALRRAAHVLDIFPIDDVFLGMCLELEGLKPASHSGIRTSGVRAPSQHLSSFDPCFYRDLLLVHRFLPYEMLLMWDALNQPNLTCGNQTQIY
Description: Examination on the substrate specificity of a β1,3-N-acetylglucosaminyl transferase (G4) was carried out by using the FLAG peptide-fused G4 polypeptide produced as a secreted form in Example 10.
as §1, §2, §3, §4, §5

[3] = biological target: T3, β1,3-N-acetylglucosaminyl transferase (G7) (Homo sapiens, UniProt Q9C0J1); assay: Substrate specificity of G7 with pyridylaminated oligosaccharides; format: biochemical; conditions: pyridylaminated substrate, 37° C., 16 hours, activity for LNnT defined as 100%
T3 construct: made in house; host or cells: Sf21 insect cells infected with recombinant baculovirus from pVL1393-F2G7
Description: as §1, §2, §3, §4, §5
Examination of the substrate specificity of a β1,3-N-acetylglucosaminyl transferase (G7) was carried out using the FLAG peptide-fused G7 polypeptide purified in Example 17.
Substrate specificity of the FLAG peptide-fused G7 polypeptide was examined by the method shown in Example 11(1). The reaction was carried out at 37° C. for 16 hours.

[4] = biological target: T2, β1,3-N-acetylglucosaminyl transferase (G4); assay: Substrate specificity of G4 with unlabeled oligosaccharides (HPAE/PAD); format: biochemical; conditions: unlabeled substrate, 37° C., 16 hours, activity on LNnT defined as 100%
Description: (§6) The reaction using the glycosyltransferase was carried out as follows. The reaction was carried out at 37° C. for 16 hours in 40 μl of an assay solution [50 mmol/l MOPS (pH 7.5), 5 mmol/l UDP-GlcNAc (SIGMA), 5 mmol/l MnCl2, […] and 10 μl of the above eluate]. Next, the reaction solution was treated at 100° C. for 5 minutes and then centrifuged at 10,000×g for 20 minutes to obtain the supernatant, and a portion thereof was analyzed using HPAE/PAD (High Performance Anion Pulsed Amperometoric Detection; manufactured by DIONEX). The specific method was carried out in the usual way [Anal. Biochem., 189, 151 (1990), J. Biol. Chem., 273, 433 (1998)].
(§7) As substrates, the following unlabeled oligosaccharides were used: lactose (Galβ1-4Glc), N-acetyllactosamine (Galβ1-4GlcNAc, hereinafter referred to as “LacNAc” in some cases), LNnT, LNT and lacto-N-neohexaose (Galβ1-4GlcNACβ1-3Galβ1-4GlcNAcβ1-3Galβ1-4Glc, hereinafter referred to as “LNnH”).
as §2
(§8) In identifying the product, coincidence of its elution time with that of a standard sugar chain was used as the index. As the standard sugar chains, GlcNAcβ1-3Galβ1-4Glc, GlcNAcβ1-3Galβ1-4GlcNAc and GlcNAcβ1-3Galβ1-4GlcNAcβ1-3Galβ1-4Glc were used.

[5] = biological target: T1, β1,3-N-acetylglucosaminyl transferase (G3); assay: Substrate specificity of G3 with unlabeled oligosaccharides; format: biochemical; conditions: unlabeled substrate, 37° C., 2 hours, activity for LNnT defined as 100%
Description: as §6, §7, §2, §8
Substrate specificity of the FLAG peptide-fused G3 polypeptide was examined by the method shown in Example 11(2). The enzyme reaction was carried out at 37° C. for 2 hours.

[6] = biological target: T3, β1,3-N-acetylglucosaminyl transferase (G7); assay: Substrate specificity of G7 with unlabeled oligosaccharides; format: biochemical; conditions: unlabeled substrate, 37° C., 15.5 hours, activity for LNnT defined as 100%
Description: as §6, §7, §2, §8
Substrate specificity of the FLAG peptide-fused G7 polypeptide was examined using the method shown in Example 11(2). The enzyme reaction was carried out at 37° C. for 15.5 hours.

β3GnT = biological target: T4, β3GnT (Homo sapiens, UniProt Q9NY97); conditions: reported values, Proc. Natl. Acad. Sci. USA, 96, 406 (1999), cited from earlier work
T4 sequence (Q9NY97 1-397): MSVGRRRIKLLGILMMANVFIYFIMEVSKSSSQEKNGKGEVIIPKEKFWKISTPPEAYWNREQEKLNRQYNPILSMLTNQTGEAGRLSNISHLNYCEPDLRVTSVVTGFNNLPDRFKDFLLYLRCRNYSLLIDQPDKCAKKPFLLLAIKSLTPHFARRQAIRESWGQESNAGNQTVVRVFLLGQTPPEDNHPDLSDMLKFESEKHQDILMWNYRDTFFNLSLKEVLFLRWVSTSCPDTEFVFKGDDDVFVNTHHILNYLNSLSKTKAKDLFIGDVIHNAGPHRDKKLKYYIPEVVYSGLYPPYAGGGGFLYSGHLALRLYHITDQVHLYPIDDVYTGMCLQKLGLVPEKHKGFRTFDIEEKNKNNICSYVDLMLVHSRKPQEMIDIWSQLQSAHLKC

T3 sequence (Q9C0J1 56-378): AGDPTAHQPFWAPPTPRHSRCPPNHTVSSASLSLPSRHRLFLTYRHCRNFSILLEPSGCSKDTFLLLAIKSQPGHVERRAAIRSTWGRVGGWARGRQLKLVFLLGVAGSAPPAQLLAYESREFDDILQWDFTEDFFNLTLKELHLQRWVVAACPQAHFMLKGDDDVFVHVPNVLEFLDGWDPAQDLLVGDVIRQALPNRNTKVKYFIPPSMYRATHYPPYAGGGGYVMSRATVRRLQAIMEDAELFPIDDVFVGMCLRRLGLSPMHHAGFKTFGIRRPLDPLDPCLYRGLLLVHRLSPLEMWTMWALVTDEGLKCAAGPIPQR

Compound | Relative activity (%) [1] | Relative activity (%) [2] | Relative activity (%) [3] | Relative activity (%) [4] | Relative activity (%) G3 [5] | Relative activity (%) G7 [6] | Relative activity (%) β3GnT (β3GnT; Table 4) | Relative activity (%) β3GnT (β3GnT; Table 6)
CC(=O)N[C@H]1[C@H](O[C@H]2[C@@H](O)[C@@H](CO)O[C@@H](O[C@@H]([C@H](O[C@@H]3O[C@@H](C)[C@@H](O)[C@@H](O)[C@@H]3O)[C@@H](O)C=O)[C@H](O)CO)[C@@H]2O)O[C@H](CO)[C@@H](O[C@@H]2O[C@@H](C)[C@@H](O)[C@@H](O)[C@@H]2O)[C@@H]1O[C@@H]1O[C@H](CO)[C@H](O)[C@H](O)[C@H]1O [LNDFH-II, lacto-N-difucohexaose II] | 0% | 0% | 0% |  |  |  |  | 
CC(=O)N[C@H]1[C@H](O[C@H]2[C@@H](O)[C@@H](CO)O[C@@H](O[C@@H]([C@H](O)[C@@H](O)C=O)[C@H](O)CO)[C@@H]2O)O[C@H](CO)[C@@H](O[C@@H]2O[C@@H](C)[C@@H](O)[C@@H](O)[C@@H]2O)[C@@H]1O[C@@H]1O[C@H](CO)[C@H](O)[C@H](O)[C@H]1O [LNFP-II, lacto-N-fucopentaose II] | 0% | 0% | 0% |  |  |  |  | 
CC(=O)N[C@H]1C(O)O[C@H](CO)[C@@H](O[C@@H]2O[C@H](CO)[C@H](O)[C@H](O)[C@H]2O)[C@@H]1O (stereo partly shown) [LacNAc, N-acetyllactosamine] |  |  |  | 0% | 21% | 8.5% | 95.5% | 95.5%
OC[C@H]1O[C@@H](O[C@H]2[C@H](O)[C@@H](O)C(O)O[C@@H]2CO)[C@H](O)[C@@H](O)[C@H]1O (stereo partly shown) [Lactose, lactose] |  |  |  | 235% | 128% | 32.6% | 67.1% | 67.1%
lacto-N-fucopentaose III [LNFP-III] | 0% | 4.7% | 7.4% |  |  |  |  | 
lacto-N-fucopentaose V [LNFP-V] | 30.8% | 65.1% | 8.1% |  |  |  |  | 
lacto-N-neohexaose [LNnH] |  |  |  | 45% | 132% | 0.05% |  | 
